We go through five molecules from US20250325548A1, “TUMOR SUPPRESSOR P73 TRANSCRIPTIONALLY REGULATES C-FLIP TO IMPEDE ITS PRIMING OF EXTRINSIC APOPTOSIS WHILE AN EXAMPLE SWITCHER COMPOUND CB-7587351 DEGRADES C-FLIP PROTEIN” (Brown University, priority 2024, published 2025).

Where a SMILES comes first, the peptide text is derived from it. The star is where a group is joined. Cbz = O=C(OCc1ccccc1)*; CH2F = FC*

The test system of series [1] is cancer cells. Kind of series: Sub-G1 flow cytometric assay in cancer cells. Format: cell-based, human. The protocol:
Flow Cytometry Assay: Briefly, cells were fixed with 70% ethanol, and stained with Propidium Iodide (PI), then subjected for CytoFLEX to measure DNA content of the PI-stained cells. Cell cycle distribution was analyzed with Flowjo.
(A flow cytometer gives signals particle by particle.)

Series [2] concerns c-FLIP. As to the kind of experiment: Western blot of c-FLIP protein levels in cancer cells. Type of series: cell-based, human. The protocol:
(§1) Western Blot analysis: An equal amount of protein in the cell lysate was loaded in each well and electrophoresed through 4-12% SDS-PAGE then transferred to a PVDF membrane. The primary antibodies indicated in the FIGs. were incubated with the PVDF membrane after transfer in blocking buffer at 4° C. overnight. Antibody binding was detected on PVDF with appropriate IR Dye-secondary antibodies (LI-COR Biosciences, USA) by the ODYSSEY infrared imaging system or with ECL Reagent (Thermo Fisher Scientific, catalog no. 32106) chemiluminescence reaction with appropriate horseradish peroxidase (HRP)-conjugated secondary antibodies (Thermo Fisher Scientific, catalog no. no. 31460 for Goad anti-rabbit IgG and catalog no. 31430 for Goat anti-mouse IgG) by the Syngene imaging system.
In general terms: A western blot detects proteins with antibodies after separation by electrophoresis.

The next series addresses T1, p73 (Homo sapiens, UniProt O15350).
T1 sequence (O15350 1-636): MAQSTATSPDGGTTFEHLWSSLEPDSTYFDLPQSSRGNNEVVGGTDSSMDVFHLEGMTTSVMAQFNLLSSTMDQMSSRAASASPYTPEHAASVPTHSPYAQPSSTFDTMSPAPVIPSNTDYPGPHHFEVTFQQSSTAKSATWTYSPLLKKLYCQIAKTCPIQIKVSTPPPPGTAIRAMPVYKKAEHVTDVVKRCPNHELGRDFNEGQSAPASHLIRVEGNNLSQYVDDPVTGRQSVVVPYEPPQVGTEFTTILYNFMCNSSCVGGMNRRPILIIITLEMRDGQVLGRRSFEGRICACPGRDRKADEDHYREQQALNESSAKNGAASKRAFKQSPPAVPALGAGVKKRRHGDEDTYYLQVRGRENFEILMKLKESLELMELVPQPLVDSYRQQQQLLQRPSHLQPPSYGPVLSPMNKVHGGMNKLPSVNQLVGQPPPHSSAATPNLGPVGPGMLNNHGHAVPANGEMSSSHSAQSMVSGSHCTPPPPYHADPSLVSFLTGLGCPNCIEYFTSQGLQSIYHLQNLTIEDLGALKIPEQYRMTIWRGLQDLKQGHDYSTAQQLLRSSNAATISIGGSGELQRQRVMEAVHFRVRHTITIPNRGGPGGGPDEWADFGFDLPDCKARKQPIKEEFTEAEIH
The settings on record: via releasing it from the inhibitory complex of mutant p53; cited from earlier work.

Another series has as its system p53 targets. As to the kind of experiment: Western blot of endogenous p53 targets. Format: cell-based, human. The protocol: as §1
The subject of the next series is caspase-3/7. As to the kind of experiment: Caspase-3/7 activity assay. Conditions: DLD-1 cancer cells, 36 hours. Type of series: cell-based, human.
A further series concerns γ-H2AX. As to the kind of experiment: γ-H2AX phosphorylation (DNA damage) in SW480 cells. Type of series: cell-based, human.
Another series deals with p53 reporter, PG13-luc. Kind of series: PG13-luc p53-reporter bioluminescence assay. Type of series: cell-based, human. As to the method:
Materials and Methods; High-Throughput Screening: Functional cell-based screening for small molecules that increase p53-transcriptional activity was performed as described in the previous study using noninvasive bioluminescence imaging in human colorectal cancer cells which stably express a p53 reporter, PG13-luc. […] DMSO treatment was used as a negative control in each screened plate. Compounds that increased p53-responsive bioluminescence were selected for secondary screening.

The test system of another series is DNA. Kind of series: DNA-intercalation test. The settings on record: not shown.
Another series has as its system colorectal cancer cells. As to the kind of experiment: Colony formation assay. Type of series: cell-based, human.
Another series relates to PARP. As to the kind of experiment: Western blot of cleaved PARP with TRAIL combination. Format: cell-based, human. Conditions: cancer cells. The protocol:
as §1

The subject of series [3] is c-FLIP. Kind of series: Real-time PCR of c-FLIP mRNA in cancer cells. Type of series: cell-based, human. The settings on record: cancer cells treated with CB-7587351, Real-time PCR. (In general: In qPCR the cycle at which signal appears reflects the starting amount.)
Another series deals with caspase-3. As to the kind of experiment: Western blot of cleaved caspase-3. Format: cell-based, human. The settings on record: cancer cells, early time points. As to the method: as §1
A further series deals with p53 target genes. As to the kind of experiment: Real-time RT-PCR of p53 target genes. Format: cell-based, human. Conditions: SW480 cells, 3 hr, normalized to GAPDH.
A further series concerns normal cells. Kind of series: Cell viability and synergy assay with TRAIL in normal cells. Conditions: tested doses. Format: cell-based. As to the method: (§2) CellTiter-Glo luminescent Cell viability assay: Cells were seeded on 96-well plates with a density of 3000 cells/well and treated with small molecule compounds as desired for 72 hours. Cell viability was measured by CellTiter-Glo bioluminescence (Promega, catalog no. G7572), and analyzed using an IVIS imager.
(§3) Statistical analysis: Statistical analyses were performed using the student's t-test or Anova with GraphPad Prism software. Statistical significance was determined by p<0.05. Combination indices were calculated using the Chou-Talalay method with CompuSyn software.

Series [4] concerns cancer cells. As to the kind of experiment: Cell viability and synergy assay with TRAIL in cancer cells. Conditions: tested doses. Format: cell-based, human. The protocol:
as §2, §3

The test system of a further series is p53-mutant cancer cells. As to the kind of experiment: Apoptosis by PARP cleavage and Annexin V after caspase knockdown. Conditions: CB-7587351 at 10 μM. Type of series: cell-based, human. The protocol:
Annexin V levels were measured using RealTime-Glo™ Annexin V assay kit (Promega). The bioluminescent Annexin V was analyzed using an IVIS imager.
as §1
Knockdown of gene expression by siRNA: Cells were transfected with siRNA using lipofectamine RNAiMAX (Life Technologies, catalog no. 13778075) as described in the protocol from the manufacturer.

The test system of series [5] is panel of cancer cell lines. As to the kind of experiment: CellTiter-Glo cell viability, panel of cancer cell lines versus MRC-5. Type of series: cell-based, human. The settings on record: cancer cells compared with normal fibroblast MRC-5 cells, 48 hr. The protocol:
[…] Cell viability was measured by CellTiter-Glo bioluminescence (Promega, catalog no. G7572), and analyzed using an IVIS imager.

Turning to `COC(=O)C[C@H](NC(=O)[C@H](C)NC(=O)[C@@H](NC(=O)OCc1ccccc1)C(C)C)C(=O)CF` [z-VAD-FMK, reference compound] (Cbz-Val-Ala-Asp(OMe)-CH2F), in the series with cancer cells [1] (SW480, HT29, HCT116 p53-/- and HCT116), the “CB-7587351-induced apoptosis with pan-caspase inhibitor (sub-G1 assay)” value is “blocked the effect of CB-7587351 on apoptosis”.

In the case of `CC(C)C[C@@H](C=O)NC(=O)[C@H](CC(C)C)NC(=O)[C@H](CC(C)C)NC(=O)OCc1ccccc1` [MG132, reference compound] (Cbz-Leu-Leu-Leu-aldehyde), in the series on c-FLIP [2] (cancer cells co-treated with MG132 and CB-7587351), the “c-FLIP protein under CB-7587351 plus proteasome inhibitor” value is given as “rescued c-FLIP from the CB-7587351-induced protein degradation”.

For the molecule `O=C(CSC1=NCCS1)c1ccc(O)c(O)c1` [RETRA, 2-(4,5-Dihydro-1,3-thiazol-2-ylthio)-1-(3,4-dihydroxyphenyl)-1-ethanone], the “activation of p73” value at p73 is on record as “activate p73”.

Turning to `CCOc1cccc2c(C)nc(Nc3nc(=O)c4c([nH]3)CCCC4)nc12` [CB-7587351, 2-(8-Ethoxy-4-methyl-2-quinazolinylamino)-5,6,7,8-tetrahydro-4 (1H)-quinazolinone], the “p21 and puma expression after knockdown of p73” value in the series with p53 targets (DLD-1 cells, 8 hr) was “blocked the activation effect”. In addition, the “endogenous p53 targets at the protein level” value in the series with p53 targets (p53-mutant and wild colorectal cancer cell lines, 16 hr) is on record as “increased”. The caspase-3/7 activity result with caspase-3/7 is recorded as “increase”. Further, the “sub-G1 content and Annexin V levels with overexpression of p73” value with cancer cells [1] (Ad-p73 infection, 48 hr (sub-G1), 24 hours (Annexin)) was “enhanced the anti-tumor effect”. Also, the “sub-G1 content and PARP cleavage after knockdown of p73” value in the series with cancer cells [1] (DLD-1 cells, 72 hr (sub-G1), 48 h (PARP)) is recorded as “abrogated the effect”. Also, in the series on cancer cells [1] (cancer cells, 48 hr), the sub-G1 content result is on record as “increase in sub-G1 content”. The “phosphorylation of γ-H2AX” value in the series with γ-H2AX (SW480 cells, increased dose, early time points) is listed as “No phosphorylation”. Moreover, the genotoxicity entry in the series with γ-H2AX (conclusion from γ-H2AX and DNA-intercalation) is “little or no genotoxicity”. Further, the “c-FLIP degradation after knockdown of CHIP or ITCH” value with c-FLIP [2] (SW480, siRNA 48 hr then CB-7587351 8 hr) is recorded as “could not rescue c-FLIP”. Besides, the “p73-mediated upregulation of c-FLIP protein” value with c-FLIP [2] (SW480 cells with overexpression of p73, treatment 8 hr) is reported as “reduced p73-mediated upregulation of c-FLIP protein”. The c-FLIP protein expression result in the series on c-FLIP [2] (p53-mutant and p53 wild-type cancer cells, Western blot) is given as “reduced c-FLIP protein expression”. For the same molecule, the p53-responsive bioluminescence entry in the series on p53 reporter, PG13-luc (SW480, DLD1, HCT116 p53-/- and HCT116, dose dependent) is recorded as “strongly induced”. Moreover, in the series on p53 reporter, PG13-luc (adenovirus infection, then CB-7587351 16 hr), the “effect on PG13-luc reporter with overexpression of p73-β or wild-type p53” value was “further enhanced”. The “PG-13-luciferase reporter after siRNA targeting p73” value in the series with p53 reporter, PG13-luc (p53-KO cancer cells) is “attenuated”. Besides, the DNA-intercalation entry with DNA is listed as “no DNA-intercalation was detected”. The colony formation entry in the series with colorectal cancer cells is “dramatically reduced”. For the same molecule, the “TRAIL-induced PARP cleavage” value in the series on PARP is on record as “enhanced TRAIL-induced PARP cleavage”. Besides, in the series with c-FLIP [3], the “c-FLIP expression at the mRNA level” value is “no significant changes”. Besides, in the series on caspase-3, the “cleaved caspase-3” value is given as “increase”. Moreover, the “selected p53 targets at the mRNA level” value in the series on p53 target genes is recorded as “slight increase”. Also, the “synergy with TRAIL on cell viability” value with normal cells is “not in normal cells”; with cancer cells [4], “synergized with TRAIL”. Besides, the “apoptosis (PARP cleavage, Annexin V) after knockdown of caspase-8” value in the series on p53-mutant cancer cells is reported as “prevented apoptosis”. The “IC50s, cell viability” value in series [5] is recorded as “much lower in cancer cells than those in normal fibroblast MRC-5 cells”.

Consider `CN1CCN(C(=O)/C=C/c2ccc([N+](=O)[O-])o2)CC1` [NSC59984, (E)-1-(4-Methyl-1-piperazinyl)-3-(5-nitro-2-furyl)-2-propen-1-one], for which, at p73, the “activation of p73” value is on record as “activate p73”.
